The source of these data is patent US20240307409A1, “ARGININE METHYLTRANSFERASE INHIBITOR AND USE THEREOF” (Cytosinlab Therapeutics Co., Ltd., priority 2021, published 2024).

Assay [1] deals with PRMT6 (Homo sapiens, UniProt Q96LA8). Put plainly: PRMT panel selectivity test, PRMT6. The format is biochemical. On the procedure: [The procedure below names another target; the source says it served here with some conditions changed.] This experiment was assayed in a buffer prepared on the same day consisting of 10 mMTirs-HCl (pH=8.0), […] and 1 mM DTT. The compounds were prepared to the highest inhibitor concentration ultimately required in the 100× reaction with 100% DMSO and then transferred to one well of a 384-well Echo plate (Echo-eligible 384-well polypropylene microplates 2.0, transparent, flat-bottomed) and sequentially diluted in the next well with a 3-fold dilution of 100% DMSO, and so on, with a total of 10 concentrations based on Precision. 100% DMSO was added to two empty wells as control well without compound and control well without enzyme in the same 384-well Echo plate. 100 nL of compound was transferred from each well of the 384-well Echo plate to a 384-well assay plate (OptiPlate (384-well, white)) via the Echo 550 liquid processor. For wells with compounds and control well without compound, a mixture containing PRMT1 enzyme (5 uL) was added to the 384-well assay plate. For control well without enzyme, a mixture containing test buffer (5 uL) was added instead. The compounds were allowed to incubate with PRMT3 for 15 minutes at room temperature, and then a mixture containing cold SAM and peptide (5 uL) was added to start the reaction (final volume=10 uL). The final concentrations of the components were as follows: 0.1 nM for PRMT3, 15 uM for SAM, 0.05 uM for peptide, and 1% DMSO. After 60 min of incubation at room temperature, the reaction was terminated by the addition of donor and acceptor magnetic beads (15 uL) with a final concentration of 10 ug/mL diluted with AlphaLISA Epigenetics Buffer. The 384-well assay plate was incubated at room temperature for 60 min and the relative fluorescence units (RFU) were nextly determined using a multi-mode plate reader in Alpha mode (Ex680/Em615).
Curve fitting: the raw data were copied from Reader and the inhibition values were calculated in Excel by equation (1). […]

Assay [2] concerns MMA in RKO cells. Put plainly: RKO In Cell Western assay (MMA primary antibody). The format is cell-based. The following applies: Homo sapiens, 72 hours, read-out: RKO ICW_EC30. Summed up: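 After 72 h compound exposure at 37 °C, RKO cells (2,000/well) were fixed, permeabilized and probed with MMA primary antibody plus HRP secondary, TMB read at OD450. Signal normalized to Janus green OD595; activation % derived from OD450/OD595 relative to DMSO and 10 μM positive controls, 8-point threefold series from 5 μM.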

PRMT6, sequence (Q96LA8 whole entry): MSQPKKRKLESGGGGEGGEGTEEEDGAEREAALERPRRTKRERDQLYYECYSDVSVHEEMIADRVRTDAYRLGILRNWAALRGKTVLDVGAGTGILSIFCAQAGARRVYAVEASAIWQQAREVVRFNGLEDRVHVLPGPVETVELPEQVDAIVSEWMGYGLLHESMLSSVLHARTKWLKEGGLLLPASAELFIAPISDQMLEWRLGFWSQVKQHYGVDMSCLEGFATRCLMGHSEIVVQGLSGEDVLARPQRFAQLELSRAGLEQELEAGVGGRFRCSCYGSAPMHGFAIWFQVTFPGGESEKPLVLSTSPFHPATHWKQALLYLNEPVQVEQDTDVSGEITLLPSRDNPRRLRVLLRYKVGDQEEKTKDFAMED

In the case of `CNCCN(C)Cc1ccccc1C1CCN(c2ccccc2)CC1` [P023], the IC50 in assay [1] is less than 50 nM. Moreover, the EC30 in assay [2] is less than 250 nM.

`CNCCN(C)Cc1ncccc1N1CCc2ccccc2CC1` [P118] gave an IC50 in assay [1] of less than 50 nM. In addition, the EC30 in assay [2] was less than 250 nM.

`CCOCC1(COCC)CCC(c2cccnc2CN(C)CCNC)CC1` [P207]: the IC50 in assay [1] is less than 50 nM. Moreover, the EC30 in assay [2] is less than 250 nM.
